± gives the uncertainty stated by the source.
Assay: xn = mol fraction of the nth substance listed

COCCOC + O
Conditions	viscosity [mPa·s]
298 K, 101 kPa, x2 = 0.222	0.5134 ± 0.005
298 K, 101 kPa, x2 = 0.353	0.6057 ± 0.0056
298 K, 101 kPa, x2 = 0.3777	0.6324 ± 0.0058
298 K, 101 kPa, x2 = 0.4685	0.7626 ± 0.0068
298 K, 101 kPa, x2 = 0.5569	0.943 ± 0.008
298 K, 101 kPa, x2 = 0.711	1.481 ± 0.011
298 K, 101.3 kPa, x1 = 0.019	1.166 ± 0.011
298 K, 101.3 kPa, x1 = 0.0608	1.748 ± 0.017
298 K, 101.3 kPa, x1 = 0.1011	2.092 ± 0.02
298 K, 101.3 kPa, x1 = 0.1521	2.104 ± 0.02
298 K, 101.3 kPa, x1 = 0.1999	1.935 ± 0.018
298 K, 101.3 kPa, x1 = 0.2992	1.432 ± 0.013
298 K, 101.3 kPa, x1 = 0.4048	1.074 ± 0.01
298 K, 101.3 kPa, x1 = 0.597	0.684 ± 0.006
298 K, 101.3 kPa, x1 = 0.801	0.506 ± 0.005
298.15 K, 101.33 kPa, x1 = 0.007	1.018 ± 0.008
298.15 K, 101.33 kPa, x1 = 0.0184	1.189 ± 0.01
298.15 K, 101.33 kPa, x1 = 0.0306	1.376 ± 0.011
298.15 K, 101.33 kPa, x1 = 0.0542	1.712 ± 0.013
298.15 K, 101.33 kPa, x1 = 0.0775	1.968 ± 0.015
298.15 K, 101.33 kPa, x1 = 0.1063	2.146 ± 0.016
298.15 K, 101.33 kPa, x1 = 0.1301	2.252 ± 0.017
298.15 K, 101.33 kPa, x1 = 0.1654	2.164 ± 0.016
298.15 K, 101.33 kPa, x1 = 0.2002	2.001 ± 0.015
298.15 K, 101.33 kPa, x1 = 0.2402	1.782 ± 0.013
298.15 K, 101.33 kPa, x1 = 0.2886	1.55 ± 0.011
298.15 K, 101.33 kPa, x1 = 0.3482	1.256 ± 0.009
298.15 K, 101.33 kPa, x1 = 0.3836	1.128 ± 0.008
298.15 K, 101.33 kPa, x1 = 0.4226	1.005 ± 0.008
298.15 K, 101.33 kPa, x1 = 0.4689	0.886 ± 0.007
298.15 K, 101.33 kPa, x1 = 0.5203	0.78 ± 0.006
298.15 K, 101.33 kPa, x1 = 0.5617	0.707 ± 0.006
298.15 K, 101.33 kPa, x1 = 0.613	0.638 ± 0.005
298.15 K, 101.33 kPa, x1 = 0.6418	0.605 ± 0.005
298.15 K, 101.33 kPa, x1 = 0.6575	0.586 ± 0.005
298.15 K, 101.33 kPa, x1 = 0.7264	0.536 ± 0.005
298.15 K, 101.33 kPa, x1 = 0.8227	0.491 ± 0.005
298.15 K, 101.33 kPa, x1 = 0.8646	0.471 ± 0.005
298.15 K, 101.33 kPa, x1 = 0.9633	0.433 ± 0.004
303.15 K, 101 kPa, x1 = 0.0471	1.344 ± 0.013
303.15 K, 101 kPa, x1 = 0.0951	1.725 ± 0.017
303.15 K, 101 kPa, x1 = 0.1421	1.837 ± 0.018
303.15 K, 101 kPa, x1 = 0.1877	1.726 ± 0.018
303.15 K, 101 kPa, x1 = 0.2322	1.562 ± 0.016
303.15 K, 101 kPa, x1 = 0.277	1.373 ± 0.014
303.15 K, 101 kPa, x1 = 0.3598	1.093 ± 0.012
303.15 K, 101 kPa, x1 = 0.4455	0.8759 ± 0.0094
303.15 K, 101 kPa, x1 = 0.5389	0.7129 ± 0.0077
303.15 K, 101 kPa, x1 = 0.6952	0.5462 ± 0.0059
303.15 K, 101 kPa, x1 = 0.803	0.4759 ± 0.0051
303.15 K, 101 kPa, x1 = 0.9001	0.4317 ± 0.0047
308.15 K, 101 kPa, x1 = 0.0471	1.174 ± 0.013
308.15 K, 101 kPa, x1 = 0.0951	1.487 ± 0.016
308.15 K, 101 kPa, x1 = 0.1421	1.583 ± 0.017
308.15 K, 101 kPa, x1 = 0.1877	1.493 ± 0.016
308.15 K, 101 kPa, x1 = 0.2322	1.375 ± 0.014
308.15 K, 101 kPa, x1 = 0.277	1.214 ± 0.013
308.15 K, 101 kPa, x1 = 0.3598	0.98 ± 0.01
308.15 K, 101 kPa, x1 = 0.4455	0.7944 ± 0.0082
308.15 K, 101 kPa, x1 = 0.5389	0.6553 ± 0.0068
308.15 K, 101 kPa, x1 = 0.6952	0.5103 ± 0.0054
308.15 K, 101 kPa, x1 = 0.803	0.448 ± 0.0048
308.15 K, 101 kPa, x1 = 0.9001	0.4079 ± 0.0044
313.15 K, 101 kPa, x1 = 0.0471	1.035 ± 0.011
313.15 K, 101 kPa, x1 = 0.0951	1.302 ± 0.014
313.15 K, 101 kPa, x1 = 0.1421	1.377 ± 0.015
313.15 K, 101 kPa, x1 = 0.1877	1.308 ± 0.014
313.15 K, 101 kPa, x1 = 0.2322	1.211 ± 0.013
313.15 K, 101 kPa, x1 = 0.277	1.081 ± 0.011
313.15 K, 101 kPa, x1 = 0.3598	0.886 ± 0.0092
313.15 K, 101 kPa, x1 = 0.4455	0.7267 ± 0.0075
313.15 K, 101 kPa, x1 = 0.5389	0.6061 ± 0.0063
313.15 K, 101 kPa, x1 = 0.6952	0.4784 ± 0.0051
313.15 K, 101 kPa, x1 = 0.803	0.4217 ± 0.0046
313.15 K, 101 kPa, x1 = 0.9001	0.3865 ± 0.0043
318.15 K, 101 kPa, x1 = 0.0471	0.9228 ± 0.0097
318.15 K, 101 kPa, x1 = 0.0951	1.143 ± 0.012
318.15 K, 101 kPa, x1 = 0.1421	1.208 ± 0.013
318.15 K, 101 kPa, x1 = 0.1877	1.157 ± 0.012
318.15 K, 101 kPa, x1 = 0.2322	1.07 ± 0.011
318.15 K, 101 kPa, x1 = 0.277	0.9692 ± 0.01
318.15 K, 101 kPa, x1 = 0.3598	0.8048 ± 0.0083
318.15 K, 101 kPa, x1 = 0.4455	0.6672 ± 0.007
318.15 K, 101 kPa, x1 = 0.5389	0.5616 ± 0.0059
318.15 K, 101 kPa, x1 = 0.6952	0.4497 ± 0.0048
318.15 K, 101 kPa, x1 = 0.803	0.3986 ± 0.0044
318.15 K, 101 kPa, x1 = 0.9001	0.367 ± 0.0041
323.15 K, 101 kPa, x1 = 0.0471	0.8291 ± 0.0094
323.15 K, 101 kPa, x1 = 0.0951	1.013 ± 0.012
323.15 K, 101 kPa, x1 = 0.1421	1.07 ± 0.012
323.15 K, 101 kPa, x1 = 0.1877	1.034 ± 0.011
323.15 K, 101 kPa, x1 = 0.2322	0.9565 ± 0.01
323.15 K, 101 kPa, x1 = 0.277	0.8719 ± 0.0091
323.15 K, 101 kPa, x1 = 0.3598	0.7336 ± 0.0076
323.15 K, 101 kPa, x1 = 0.4455	0.6155 ± 0.0064
323.15 K, 101 kPa, x1 = 0.5389	0.5232 ± 0.0054
323.15 K, 101 kPa, x1 = 0.6952	0.4226 ± 0.0045
323.15 K, 101 kPa, x1 = 0.803	0.3769 ± 0.0042
323.15 K, 101 kPa, x1 = 0.9001	0.3479 ± 0.0039

OCCCOCCCO + NCCN
viscosity [mPa·s], 101 kPa
Conditions	293.15 K	298.15 K	303.15 K	308.15 K	313.15 K	318.15 K
x1 = 0.023	1.77 ± 0.03	1.59 ± 0.03	1.34 ± 0.03	1.21 ± 0.03	1.09 ± 0.03	0.991 ± 0.029
x1 = 0.0474	2.1 ± 0.03	1.86 ± 0.03	1.55 ± 0.03	1.4 ± 0.03	1.24 ± 0.03	1.13 ± 0.03
x1 = 0.0733	2.51 ± 0.03	2.19 ± 0.03	1.81 ± 0.03	1.62 ± 0.03	1.44 ± 0.03	1.3 ± 0.03
x1 = 0.1007	3.07 ± 0.04	2.66 ± 0.03	2.16 ± 0.03	1.92 ± 0.03	1.71 ± 0.03	1.53 ± 0.03
x1 = 0.1299	3.75 ± 0.04	3.23 ± 0.04	2.59 ± 0.03	2.28 ± 0.03	2 ± 0.03	1.79 ± 0.03
x1 = 0.1611	4.7 ± 0.04	4.01 ± 0.04	3.16 ± 0.04	2.76 ± 0.03	2.43 ± 0.03	–
x1 = 0.1943	5.97 ± 0.05	4.99 ± 0.05	3.9 ± 0.04	3.34 ± 0.04	2.88 ± 0.04	–
x1 = 0.23	7.72 ± 0.06	6.39 ± 0.05	4.91 ± 0.05	4.16 ± 0.04	3.55 ± 0.04	–
x1 = 0.2682	10.2 ± 0.1	8.28 ± 0.06	6.24 ± 0.05	5.22 ± 0.05	4.37 ± 0.04	–
x1 = 0.3094	13.7 ± 0.1	10.9 ± 0.1	8.09 ± 0.06	6.65 ± 0.05	5.56 ± 0.05	–
x1 = 0.3538	18.7 ± 0.1	14.7 ± 0.1	10.7 ± 0.1	8.62 ± 0.07	7 ± 0.06	–
x1 = 0.4019	25.9 ± 0.2	19.8 ± 0.1	14.1 ± 0.1	11.1 ± 0.1	8.87 ± 0.07	–
x1 = 0.4541	36.7 ± 0.3	26.7 ± 0.2	18.6 ± 0.1	14.4 ± 0.1	11.2 ± 0.1	–
x1 = 0.5111	48.7 ± 0.3	35.4 ± 0.2	24.1 ± 0.2	18.4 ± 0.1	14.1 ± 0.1	–
x1 = 0.5734	63.9 ± 0.4	45.7 ± 0.3	30.6 ± 0.2	22.9 ± 0.2	17.4 ± 0.1	–
x1 = 0.6418	79.4 ± 0.8	56.4 ± 0.3	37.3 ± 0.3	27.6 ± 0.2	20.7 ± 0.1	–
x1 = 0.7174	93.8 ± 1.1	66 ± 0.5	43.3 ± 0.3	31.9 ± 0.2	23.7 ± 0.2	–
x1 = 0.8013	105 ± 2	73.2 ± 0.6	47.9 ± 0.3	35.1 ± 0.2	26 ± 0.2	–
x1 = 0.8949	112 ± 2	77.9 ± 0.7	50.6 ± 0.3	36.8 ± 0.2	27.3 ± 0.2	–

Reference: the CheMixHub viscosity set
